The values that follow come from paper PMC11558545, “Mechanistic Insights into the Function of 14-3-3 Proteins as Negative Regulators of Brassinosteroid Signaling in Arabidopsis” (Plant and Cell Physiology, 2024).

Square brackets hold non-standard residues; d marks the D form. Peptide text beside a SMILES is read from it. pS = N[C@@H](COP(=O)(O)O)C(=O)O

Usually Kd stands for the free concentration of one partner at which half of the binding sites on the other are occupied at equilibrium, for simple one-to-one binding.

Experiment [1] deals with T1, Arabidopsis 14-3-3 isoform kappa (14-3-3κ) (Arabidopsis thaliana, UniProt P48348).
T1 construct: Full-length At14-3-3-κ^1−248 (Uniprot-ID P48348, http://uniprot.org); thioredoxin A (trxA) fusion (N, cleaved yes); 8xHis (N, cleaved yes); StrepII (N, cleaved yes); made in house; host or cells: E. coli BL21 (DE3) RIL
T1 sequence (P48348 whole entry, the tested form may be a part, canonical isoform): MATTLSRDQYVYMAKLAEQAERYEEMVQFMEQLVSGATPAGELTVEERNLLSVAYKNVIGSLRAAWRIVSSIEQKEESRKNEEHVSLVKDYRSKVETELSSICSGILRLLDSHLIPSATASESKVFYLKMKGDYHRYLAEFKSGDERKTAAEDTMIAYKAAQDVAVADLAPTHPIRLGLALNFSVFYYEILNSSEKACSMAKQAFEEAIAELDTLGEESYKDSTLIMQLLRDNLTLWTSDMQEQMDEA
Kind of experiment: biochemical. In kind it is binding. An excerpt: Full-length At14-3-3-κ^1−248 (Uniprot-ID P48348, http://uniprot.org), At14-3-3-λ^1−248 (P48349), At14-3-3-ω^1−259 (Q01525) or C-terminal truncated At14-3-3-κ^1−240, At14-3-3-λ^1−240 or At14-3-3-ω^1−237 isoforms and BIN2^7−380 from Arabidopsis were cloned from synthetic genes codon-optimized for expression in E. coli (Geneart, Thermofisher, Tauberbischofsheim, Germany) into vector pMH-HStrxT providing an N-terminal thioredoxin A (trxA) fusion protein containing 8xHis and StrepII affinity tags, and a tobacco etch virus protease (TEV) recognition site. Protein expression in E. coli BL21 (DE3) RIL grown to OD600nm= 0.6 was induced with 0.2 mM ispropyl β-D-galactoside in terrific broth at 16°C for 16 h. Cells were collected by centrifugation at 4500 × g for 30 min, washed in PBS buffer, centrifuged again at 4500 × g for 15 min and snap-frozen in liquid N2. For protein purification cells were resuspended in buffer A (20 mM Tris–HCl pH 8.0, 500 mM NaCl), and lysed by sonication (Branson DS450). The lysate was cleared by centrifugation at 7000 × g for 60 min and filtrated using a 0.45 µm molecular weight cutoff filter (Pall Corporation, Port Washington, NY, USA). The supernatant was loaded onto a Ni^2+ affinity column (HisTrap HP 5 mL, Cytiva Life Sciences, Freiburg im Breisgau, Germany), washed with buffer A and eluted in buffer A supplemented with 250 mM imidazole pH 8.0. […]

The target of experiment [2] is T2, 14-3-3 ω (biotinylated dimer on streptavidin chip) (Arabidopsis thaliana, UniProt Q01525).
T2 construct: Full-length At14-3-3-κ^1−248 (Uniprot-ID P48348, http://uniprot.org), At14-3-3-λ^1−248 (P48349), At14-3-3-ω^1−259 (Q01525); thioredoxin A (trxA) fusion (N, cleaved yes); 8xHis (N, cleaved yes); StrepII (N, cleaved yes); biotin (chemical, EZ-Link NHS-Biotin on amines); made in house; host or cells: E. coli BL21 (DE3) RIL
T2 sequence (Q01525 1-259): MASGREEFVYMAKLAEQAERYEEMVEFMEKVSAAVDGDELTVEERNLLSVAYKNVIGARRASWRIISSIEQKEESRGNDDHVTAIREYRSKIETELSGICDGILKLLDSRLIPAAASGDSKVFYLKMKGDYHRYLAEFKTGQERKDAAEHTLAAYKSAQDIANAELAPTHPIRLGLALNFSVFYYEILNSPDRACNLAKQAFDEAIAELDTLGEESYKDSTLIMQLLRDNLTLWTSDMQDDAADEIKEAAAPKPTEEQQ
Kind of experiment: Grating coupled interferometry (GCI) binding kinetics versus 14-3-3 ω. The note with it: 25°C, 1-to-1 (2:2) binding model. As for the experimental part:
The binding kinetics of 14-3-3 ω versus the BZR1^169−175 and pBZR1^169−175 peptides (Table 1) were assessed on a Creoptix® WAVE system using a streptavidin-coated 4PCH WAVEchip® (long polycarboxylate matrix; Creoptix AG, Switzerland). Chips were first conditioned with 100 mM sodium borate pH 9.0, 1 m NaCl. Next, after the activation of the chip surface with a 1:1 mix of 400 mM N-(3-dimethylaminopropyl)-N’-ethylcarbodiimide hydrochloride and 100 mM N-[…] hydroxysuccinimide (Xantec, Germany), streptavidin was immobilized on the chip surface through the injection of 50 µg/ml streptavidin (ThermoFisher Scientific 43–4301) in 10 mM sodium acetate pH 5.0 until high density (∼10,000 pg/mm^2) was reached. Biotinylation of 14-3-3 ω for capturing onto streptavidin chip was performed by mixing equimolar amounts of protein and biotin (EZ-Link™ NHS-Biotin ThermoFisher Scientific). A total of 170 µM of 14-3-3 ω were incubated on ice with 170 µM of biotin (previously dissolved in water to 20 mM) for 1.5 min. The biotinylation was performed in 100 mM Hepes pH 8 and 150 mM NaCl. The biotinylated 14-3-3 ω dimer was purified by size exclusion chromatography in 20 mM Hepes pH 7.5 and 150 mM NaCl on a Superdex 10/300 increase column (Cytiva Life Sciences) to verify the homogeneity and to remove excess biotin. Gel-filtrated biotinylated 14-3-3 ω (0.45 mg/ml) was directly immobilized on the streptavidin-coated chip until a density of about 500 pg/ mm^2 was reached. The synthetic BRZ1^169−175 and pBZR1^169−175 peptides were dissolved in 20 mM Hepes and 150 mM NaCl buffer to a final concentration of 10 mM. Kinetic analysis of 14-3-3 ω and BZR1^169−175/pBZR1^169−175 interactions was performed at 25°C by flushing a dilution series of the analyte pBZR1 with a 2 dilution factor starting from 10 µM. Data analysis and data fitting were done using the Creoptix WAVEcontrol® software.

Take `CC(C)C[C@H](NC(=O)[C@H](CCC(=O)O)NC(=O)CNC(=O)[C@@H](N)CCCNC(=N)N)C(=O)N[C@@H](Cc1ccccc1)C(=O)N[C@@H](COP(=O)(O)O)C(=O)N[C@@H](C)C(=O)N1CCC[C@H]1C(=O)O` [pBKI1^265-272] (H-RGELF[pS]AP-OH): in experiment [1], the affinity, expressed as Kd, was 15.9 ± 0.4 µM.

On to `CC[C@H](C)[C@H](NC(=O)[C@@H](N)CCCNC(=N)N)C(=O)N[C@@H](CO)C(=O)N[C@@H](CC(N)=O)C(=O)N[C@@H](COP(=O)(O)O)C(=O)N[C@@H](C)C(=O)N1CCC[C@H]1C(=O)O` [pBZR1^169-175] (H-RISN[pS]AP-OH), for which the Kd in experiment [2] (Fig. 2D and text, read-out: KD, dissociation constant (GCI)) is 0.52 µM. Also, the kon in experiment [2] (Fig. 2D, read-out: ka, association rate constant) is 1.67e+06 M⁻¹ s⁻¹. Moreover, the koff in experiment [2] (Fig. 2D, read-out: kd, dissociation rate constant) amounted to 0.87 s⁻¹.
